For data set [1] the following is noted: according to Schalcter (2017), cited from earlier work.
The test system of a further data set is CoV-OC43. Kind of data set: in vitro inhibition of infection of cells with test virus CoV-OC43. It counts as cell-based. As to conditions: for infection of cells by CoV-OC43 at different concentrations: different dilutions of the sialic acid, two replicates, FIGS. 1 and 2. On the procedure:
FIG. 1 provides data from one replicate showing infection of cells by CoV-OC43 at different concentrations of either Neu5Ac or Neu5Gc.
FIG. 2 provides data from another replicate showing infection of cells by CoV-OC43 at different concentrations of either Neu5Ac or Neu5Gc.
FIG. 3 provides data from an experiment where inhibition of infection by Neu5Ac is compared to a control sugar, galactose.
The effectiveness of sialic acid (Neu5Ac or Neu5Gc) in preventing corona virus infection was evaluated in vitro in a model system. Different dilutions of the sialic acids were tested for their ability to inhibit infection of cells with the test virus CoV-OC43. FIGS. 1 and 2 provide data from two replicates showing infection of cells by CoV-OC43 at different concentrations of either Neu5Ac or Neu5Gc (Neu5Ac left hand bars, Neu5Gc right hand bars).

Regarding `CC(=O)N[C@H]1[C@H]([C@H](O)[C@H](O)CO)OC(O)(C(=O)O)C[C@@H]1O` (some centres unmarked) [Neu5Ac, N-acetyl neuraminic acid], the excretion via urine result in data set [1] was “quickly excreted via urine”. Further, the absorption after ingestion result in data set [1] (after ingestion) was “rapidly absorbed”. Further, the “inhibition of infection compared to a control sugar, galactose” value in the data set with CoV-OC43 (CoV-OC43, FIG. 3) is “prevents infection as compared to the control”. In addition, the “infection of cells by CoV-OC43 at different concentrations” value with CoV-OC43 was “inhibited in a dose-dependent manner”.

Regarding `O=C(CO)N[C@H]1[C@H]([C@H](O)[C@H](O)CO)OC(O)(C(=O)O)C[C@@H]1O` (some centres unmarked) [Neu5Gc, N-glycolylneuraminic acid], the “infection of cells by CoV-OC43 at different concentrations” value with CoV-OC43 was “inhibited in a dose-dependent manner”.

The record behind these values is patent US12390481B2, “Sialic acid compositions for the use of inhibiting and treating coronavirus infection” (LifeScience AS, priority 2020, dated 2025).
